Measured values reported in PubChem BioAssay (NCI).
Where “and” joins values, the source holds several entries; their conditions need not be identical. Identical values can stand only once.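 Where inhibition never reached the appropriate level, the endpoint shown equals the highest concentration tested. Otherwise, values were interpolated linearly from a five-concentration, 48-hour dose response in 96-well plates. Here, GI50 denotes the concentration required for 50% inhibition of growth. TGI marks complete inhibition of growth.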

Tests used:
Assay in all cases: NCI tumour cell line growth inhibition, 48 h
SK-MEL-5 melanoma = test system: SK-MEL-5 melanoma
DU-145 prostate = test system: DU-145 prostate
UO-31 renal = test system: UO-31 renal
OVCAR-5 ovarian = test system: OVCAR-5 ovarian
UACC-62 melanoma = test system: UACC-62 melanoma
IGROV1 ovarian = test system: IGROV1 ovarian
SR leukemia = test system: SR leukemia
SN12C renal = test system: SN12C renal

SMILES | GI50 (SK-MEL-5 melanoma) | TGI (SK-MEL-5 melanoma) | GI50 (DU-145 prostate) | TGI (DU-145 prostate) | GI50 (UO-31 renal) | TGI (UO-31 renal) | GI50 (OVCAR-5 ovarian) | TGI (OVCAR-5 ovarian) | GI50 (UACC-62 melanoma) | TGI (UACC-62 melanoma) | GI50 (IGROV1 ovarian) | TGI (IGROV1 ovarian) | GI50 (SR leukemia) | GI50 (SN12C renal) | TGI (SN12C renal) | TGI (SR leukemia)
COc1cc2c3c(n(C)c(=O)c2cc1OC)-c1cc2c(cc1/C3=C\CCCCCN)OCO2 | 3.12 µM | 38.2 µM | 1.88 µM | 23.1 µM | 2.08 µM | > 100 µM | 8.66 µM | > 52.9 µM | 2.56 µM | 25.3 µM | < 0.01 µM | 1.34 µM | < 0.01 µM | 0.271 µM | 18.4 µM | 
N#Cc1c(-c2nc3ccccc3s2)c(=O)oc2cc(O)ccc12 |  | 69.8 µM |  | > 100 µM |  | 74.9 µM |  | > 100 µM |  | > 100 µM |  | > 100 µM |  |  | > 100 µM | > 100 µM
Cc1c2c(nn1-c1ccc(S(=O)(=O)NC(=S)Nc3ccccc3)cc1)-c1ccccc1CC2 | > 50 µM | > 50 µM | > 50 µM | > 50 µM | > 50 µM | > 50 µM | > 50 µM | > 50 µM | > 50 µM | > 50 µM | 20.6 µM | > 50 µM | > 50 µM | > 50 µM | > 50 µM | > 50 µM
CCN(CC)CCOc1nc2ccc(OC)cc2c2c1-c1ccc(OC)cc1C2=O | 1.57 µM | 2.94 µM | 0.626 µM | 1.88 µM | 0.361 µM | 1.85 µM | 1.87 µM | 7.2 µM | 2.76 µM | 7.65 µM | 0.417 µM | 1.89 µM | 0.344 µM | 0.531 µM | 2.06 µM | 1.69 µM
CN(C)c1cccc2c(S(=O)(=O)N[C@H]3CC[C@H]4[C@@H]5CCc6cc(O)ccc6[C@H]5CC[C@]34C)cccc12 | 1.53 µM | 2.9 µM | 2.71 µM | 8.51 µM | 2.02 µM | 7.51 µM | 3.09 µM | 13.2 µM | 1.55 µM | 3.46 µM | 3.45 µM | 16.2 µM | 2.79 µM | 1.64 µM | 3.43 µM | > 100 µM
CNc1ccc2nc3ccc(=[N+](C)C)cc-3sc2c1 | 0.212 µM and 0.263 µM | 0.99 µM and 0.875 µM | 3.6 µM and 2.76 µM | 16.1 µM and 11.9 µM | 2.74 µM and 2.2 µM | 19 µM and 16.3 µM | 2.85 µM and 0.514 µM | 6.86 µM and 4.31 µM | 0.799 µM and 1.1 µM | 2.86 µM and 3.6 µM | 2.36 µM and 1.28 µM | 10.5 µM and 4.06 µM | 0.635 µM and 2.22 µM | 1.08 µM and 0.466 µM | 3.31 µM and 4.16 µM | 12.1 µM and > 100 µM
CCOC(=O)c1c2c(n3ccc(NC(=O)CCN4CCCC4)cc13)C(=O)c1ncccc1C2=O | 15.1 µM | 35 µM | 1.46 µM | 2.96 µM | 0.724 µM | 2.81 µM | 1.57 µM | 3.42 µM | 1.39 µM | 3.22 µM | 1.01 µM | 3.27 µM |  | 1.43 µM | 3.47 µM | 1.39 µM
C=C1CC2(OC1=O)C(=O)N(CCCCCCCN1C(=O)C3(CC(=C)C(=O)O3)c3ccccc31)c1ccccc12 (stereo not drawn) | 7.11 µM | 13.7 µM | 2.89 µM | 9.49 µM | 3.44 µM | 9.95 µM | 7.09 µM | 14.2 µM | 1.27 µM | 4.82 µM | 0.966 µM | 2.29 µM | 0.475 µM | 1.08 µM | 2.72 µM | 3.58 µM
Cc1ccc(CNc2c3ccccc3nc3ccccc23)cc1 | 1.66 µM | 3.06 µM | 3.02 µM | 11.4 µM | 1.12 µM | 3.17 µM | 1.99 µM | 8.08 µM | 1.75 µM | 4.1 µM | 1.88 µM | 5.56 µM | 1.56 µM | 2.6 µM | 11.1 µM | 6.22 µM
CNC(=O)c1cc(OC2CCC(NC(=O)Nc3ccc(Cl)c(C(F)(F)F)c3)CC2)ccn1 (stereo not drawn) | 3.07 µM | 10.9 µM | 12.8 µM | 32.5 µM | 7.09 µM | 21.7 µM | 12.5 µM | 31.1 µM | 5.41 µM | 19.4 µM | 13.4 µM | 39.6 µM | 4.42 µM | 6.2 µM | 22.1 µM | 32.7 µM
COC(=O)N[C@H]1CCc2c(Br)c(OC)c(OC)c(OC)c2-c2ccc(SC)c(=O)cc21 | < 0.01 µM | 0.0182 µM | < 0.01 µM | 0.145 µM | < 0.0281 µM | 19 µM | < 0.01 µM | > 39.6 µM | < 0.01 µM | 18 µM | < 0.01 µM | > 39.5 µM | < 0.01 µM | < 0.01 µM | 25.5 µM | 22.4 µM
O=[N+]([O-])C1C(c2ccccc2)C12c1ccccc1-c1ccccc12 (stereo not drawn) | 0.515 µM | 9.48 µM | 0.733 µM | 3.66 µM | 2.06 µM | 18.8 µM | 4.65 µM | > 51.8 µM | 0.544 µM | 15.6 µM | 3.41 µM | 30.1 µM | 0.348 µM | 1.67 µM | 26 µM | 4.22 µM
Nc1nc(SCc2ccccn2)c2ncn(C3CCCC3)c2n1 |  | > 100 µM |  | > 100 µM |  | 32.7 µM |  | > 100 µM |  | > 100 µM |  | > 100 µM |  |  | > 100 µM | > 100 µM
COc1cc(O)c([C@@H]2C[C@H](CCc3ccc(O)cc3)O[C@H](c3ccc(O)cc3)C2)c(O)c1C(=O)/C=C/c1ccc(O)cc1 | 2.11 µM | 6.05 µM | 3.15 µM | 10.1 µM | 2.9 µM | 7.96 µM | 3.81 µM | 12.5 µM | 2.38 µM | 5.92 µM | 2.2 µM | 5.44 µM | 2.42 µM | 3.23 µM | 13.8 µM | 4.8 µM
COc1cccc(C2CC(C)(N3CCCC3)Oc3cc4c(cc32)OCO4)c1O (stereo not drawn) |  | > 62.4 µM |  | > 96.3 µM |  | > 96.3 µM |  | > 100 µM |  | > 90.1 µM |  | 99.2 µM |  |  | 84.9 µM | 31.6 µM
N=C1C(c2nc(-c3ccc(Br)cc3)cs2)=C(O)CN1Cc1cccnc1 | 4.35 µM | 32.5 µM | 17.4 µM | 63.1 µM | 19.7 µM | > 100 µM | 2.66 µM | 42.8 µM | 6.92 µM | 30.6 µM |  |  | 17.3 µM | 26.8 µM | > 100 µM | 67.2 µM
